Measured values published in PubChem BioAssay AID292 (DTP/NCI, 2004).
Several values for one entry are separate records, joined by “and”; a condition that tells them apart may be missing. Identical values can stand only once. Toxic doses and inconclusive results are not listed.

Tested on: B6C3F1 mice, ip Sarcoma M5076, median survival T/C
Assay: NCI In Vivo Anticancer Drug Screen. Data for tumor model Sarcoma M5076 (intraperitoneal) in B6C3F1 mice
Conditions: endpoint: median survival time, higher = longer survival
Outline: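 Mice carrying the transplanted tumour received compound treatment. Survival was recorded, and each value is the treated-group measurement divided by that of the vehicle-dosed control group.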

[1] = dose: 50.0 mg/kg/injection, schedule: Q04DX004 (ip), vehicle: saline
[2] = dose: 12.5 mg/kg/injection, schedule: Q04DX004 (ip), vehicle: saline with Tween-80
[3] = dose: 25.0 mg/kg/injection, schedule: Q04DX004 (ip), vehicle: saline with Tween-80
[4] = dose: 50.0 mg/kg/injection, schedule: Q04DX004 (ip), vehicle: saline with Tween-80
[5] = dose: 100.0 mg/kg/injection, schedule: Q04DX004 (ip), vehicle: saline with Tween-80
[6] = dose: 25.0 mg/kg/injection, schedule: Q04DX004 (ip), vehicle: saline
[7] = dose: 37.5 mg/kg/injection, schedule: Q04DX004 (ip), vehicle: saline with Tween-80
[8] = dose: 75.0 mg/kg/injection, schedule: Q04DX004 (ip), vehicle: saline with Tween-80
[9] = dose: 150.0 mg/kg/injection, schedule: Q04DX004 (ip), vehicle: saline with Tween-80
[10] = dose: 75.0 mg/kg/injection, schedule: Q04DX004 (ip), vehicle: Klucel (hydroxypropylcellulose) (HPC)
[11] = dose: 150.0 mg/kg/injection, schedule: Q04DX004 (ip), vehicle: Klucel (hydroxypropylcellulose) (HPC)
[12] = dose: 50.0 mg/kg/injection, schedule: Q04DX004 (ip), vehicle: Klucel (hydroxypropylcellulose) (HPC)
[13] = dose: 100.0 mg/kg/injection, schedule: Q04DX004 (ip), vehicle: Klucel (hydroxypropylcellulose) (HPC)
[14] = dose: 18.75 mg/kg/injection, schedule: Q04DX004 (ip), vehicle: saline with Tween-80

With `CC(C)N1C(=O)N(Cl)C2C1N(Cl)C(=O)N2Cl` (centres undefined) the T/C (dose: 6.25 mg/kg/injection, schedule: Q04DX004 (ip), vehicle: sodium bicarbonate) was 102 % of control, the T/C (dose: 12.5 mg/kg/injection, schedule: Q04DX004 (ip), vehicle: sodium bicarbonate) was 107 % of control and the T/C (dose: 25.0 mg/kg/injection, schedule: Q04DX004 (ip), vehicle: sodium bicarbonate) was 94 % of control. The T/C [1] was 91 % of control, the T/C (dose: 50.0 mg/kg/injection, schedule: Q04DX004 (ip), vehicle: sodium bicarbonate) was 114 % of control and the T/C (dose: 100.0 mg/kg/injection, schedule: Q04DX004 (ip), vehicle: sodium bicarbonate) was 109 % of control.

`COc1cc(/C=C/[N+](=O)[O-])cc(Br)c1OC` was tested, and the T/C [2] was 95 % of control, the T/C [3] was 90 % of control and the T/C [4] was 94 % of control. For the same compound, the T/C [5] was 107 % of control.

In the case of `C/C(=N\Nc1cc(C)nc2ccc(C)cc12)c1cn(C)n(-c2ccccc2)c1=O`, the T/C (dose: 31.25 mg/kg/injection, schedule: Q04DX004 (ip), vehicle: Klucel (hydroxypropylcellulose) (HPC)) is reported as 86 % of control.

In the case of `O=C1N[C@@H]2C(=C[C@H](O)[C@@H](O)[C@H]2O)c2cc3c(c(O)c21)OCO3`, the T/C (dose: 0.38 mg/kg/injection, schedule: Q01DX009 (ip), vehicle: saline with Tween-80) is reported as 111 % of control, the T/C (dose: 0.38 mg/kg/injection, schedule: Q04DX004 (ip), vehicle: saline with Tween-80) is reported as 91 % of control and the T/C (dose: 0.75 mg/kg/injection, schedule: Q04DX004 (ip), vehicle: saline with Tween-80) is reported as 102 % of control and 110 % of control. For the same compound, the T/C (dose: 1.5 mg/kg/injection, schedule: Q01DX009 (ip), vehicle: saline with Tween-80) was 123 % of control, the T/C (dose: 1.5 mg/kg/injection, schedule: Q04DX004 (ip), vehicle: saline with Tween-80) was 96 % of control and 119 % of control and the T/C (dose: 3.0 mg/kg/injection, schedule: Q04DX004 (ip), vehicle: saline with Tween-80) was 107 % of control.

With `CC(C)(C)c1noc2c1C(=O)c1ccccc1-2` the T/C [3] was 102 % of control, the T/C [4] was 105 % of control and the T/C [5] was 100 % of control. The T/C (dose: 200.0 mg/kg/injection, schedule: Q04DX004 (ip), vehicle: saline with Tween-80) was 90 % of control.

In the case of `Cc1nc(N)nc(N)c1-c1ccc(Cl)c(Cl)c1`, the T/C (dose: 1.25 mg/kg/injection, schedule: Q04DX004 (ip), vehicle: saline) is reported as 105 % of control, the T/C (dose: 2.5 mg/kg/injection, schedule: Q04DX004 (ip), vehicle: saline) is reported as 100 % of control and the T/C (dose: 5.0 mg/kg/injection, schedule: Q04DX004 (ip), vehicle: saline) is reported as 102 % of control. For the same compound, the T/C (dose: 10.0 mg/kg/injection, schedule: Q04DX004 (ip), vehicle: saline) was 113 % of control.

`NC(=O)c1ccc[n+](Cc2c(Cl)cccc2Cl)c1` was tested, and the T/C (dose: 12.5 mg/kg/injection, schedule: Q04DX004 (ip), vehicle: saline) was 100 % of control, the T/C [6] was 99 % of control and the T/C [1] was 100 % of control. For the same compound, the T/C (dose: 100.0 mg/kg/injection, schedule: Q04DX004 (ip), vehicle: saline) was 96 % of control.

In the case of `O=c1c(-c2nn[nH]n2)cnc2sc3cc(Cl)ccc3n12`, the T/C [7] is reported as 98 % of control, the T/C [8] is reported as 95 % of control and the T/C [9] is reported as 90 % of control.

For `CC(=O)N1CN=C2Sc3ccccc3N2C1`, the T/C (dose: 18.75 mg/kg/injection, schedule: Q04DX004 (ip), vehicle: Klucel (hydroxypropylcellulose) (HPC)) was 102 % of control, the T/C (dose: 37.5 mg/kg/injection, schedule: Q04DX004 (ip), vehicle: Klucel (hydroxypropylcellulose) (HPC)) was 111 % of control and the T/C [10] was 103 % of control. The T/C [11] was 102 % of control.

`O=c1[nH]cnc2n[nH]nc12` was tested, and the T/C [10] was 104 % of control, the T/C [11] was 94 % of control and the T/C (dose: 300.0 mg/kg/injection, schedule: Q04DX004 (ip), vehicle: Klucel (hydroxypropylcellulose) (HPC)) was 97 % of control. The T/C (dose: 600.0 mg/kg/injection, schedule: Q04DX004 (ip), vehicle: Klucel (hydroxypropylcellulose) (HPC)) was 95 % of control.

In the case of `Nc1nc2c(ncn2C2CC3[O][Sn]([c]4ccccc4)([c]4ccccc4)[O]CC3O2)c(=O)[nH]1` (centres undefined), the T/C (dose: 25.0 mg/kg/injection, schedule: Q04DX004 (ip), vehicle: distilled water + Tween-80) is reported as 99 % of control, the T/C (dose: 50.0 mg/kg/injection, schedule: Q04DX004 (ip), vehicle: distilled water + Tween-80) is reported as 90 % of control and the T/C (dose: 100.0 mg/kg/injection, schedule: Q04DX004 (ip), vehicle: distilled water + Tween-80) is reported as 88 % of control. For the same compound, the T/C (dose: 200.0 mg/kg/injection, schedule: Q04DX004 (ip), vehicle: distilled water + Tween-80) was 92 % of control.

`Cc1ccc(-c2nnc3cc(C)n4nnnc4n23)cc1` was tested, and the T/C (dose: 17.5 mg/kg/injection, schedule: Q04DX004 (ip), vehicle: Klucel (hydroxypropylcellulose) (HPC)) was 97 % of control, the T/C (dose: 35.0 mg/kg/injection, schedule: Q04DX004 (ip), vehicle: Klucel (hydroxypropylcellulose) (HPC)) was 99 % of control and the T/C (dose: 70.0 mg/kg/injection, schedule: Q04DX004 (ip), vehicle: Klucel (hydroxypropylcellulose) (HPC)) was 99 % of control. The T/C (dose: 140.0 mg/kg/injection, schedule: Q04DX004 (ip), vehicle: Klucel (hydroxypropylcellulose) (HPC)) was 101 % of control and the T/C (dose: 280.0 mg/kg/injection, schedule: Q04DX004 (ip), vehicle: Klucel (hydroxypropylcellulose) (HPC)) was 97 % of control.

With `COc1cc2c(c3c1c(=O)c1ccccc1n3C)C=C([N+](=O)[O-])C(C)(C)O2` the T/C (dose: 25.0 mg/kg/injection, schedule: Q04DX004 (ip), vehicle: saline + Tween-80 + alcohol) was 104 % of control and the T/C (dose: 50.0 mg/kg/injection, schedule: Q04DX004 (ip), vehicle: saline + Tween-80 + alcohol) was 90 % of control.

In the case of `CN=NN(C)C(=O)NC`, the T/C [6] is reported as 158 % of control, the T/C (dose: 30.0 mg/kg/injection, schedule: Q04DX004 (ip), vehicle: saline) is reported as 160 % of control and the T/C [1] is reported as 151 % of control and 152 % of control and 177 % of control. The T/C (dose: 83.0 mg/kg/injection, schedule: Q04DX004 (ip), vehicle: saline) was 160 % of control and 162 % of control.

For `CC(=O)C1C(=O)C(=O)N(c2ccc(C)cc2C)C1=O` (centres undefined), the T/C [12] was 102 % of control and the T/C [13] was 98 % of control.

`Clc1ccc(OCC(Cn2ccnc2)c2ccc(Cl)cc2)cc1` (centres undefined) was tested, and the T/C [14] was 115 % of control, the T/C [7] was 102 % of control and the T/C [8] was 101 % of control.

With `CN1c2ccccc2C(=O)N2C(=O)CCC21C` (centres undefined) the T/C [14] was 100 % of control, the T/C [7] was 100 % of control and the T/C [8] was 102 % of control. The T/C [9] was 101 % of control.

For `CC(O)C1(O)C(O)CC(OC2c3cc4c(c(O)c3[C@@H]3C[C@@]2(C)OC32C=c3cc[nH]c3=N2)C(=O)c2cccc(O)c2C4=O)OC1C` (some centres undefined), the T/C [2] was 104 % of control, the T/C [3] was 104 % of control and the T/C [4] was 92 % of control.

In the case of `O=C(Nc1cccc(NC(=O)c2nn[nH]n2)n1)c1nn[nH]n1`, the T/C [12] is reported as 99 % of control, the T/C [13] is reported as 102 % of control and the T/C (dose: 200.0 mg/kg/injection, schedule: Q04DX004 (ip), vehicle: Klucel (hydroxypropylcellulose) (HPC)) is reported as 94 % of control.

For `CC(=O)OCc1cc(-c2nc3ccccc3[nH]c2=O)nn1-c1ccc(Cl)cc1`, the T/C (dose: 6.25 mg/kg/injection, schedule: Q04DX004 (ip), vehicle: distilled water + alcohol) was 95 % of control, the T/C (dose: 12.5 mg/kg/injection, schedule: Q04DX004 (ip), vehicle: distilled water + alcohol) was 91 % of control and the T/C (dose: 25.0 mg/kg/injection, schedule: Q04DX004 (ip), vehicle: distilled water + alcohol) was 88 % of control and 91 % of control. The T/C (dose: 200.0 mg/kg/injection, schedule: Q04DX004 (ip), vehicle: distilled water + alcohol) was 97 % of control.

In the case of `COc1ccc([C@@]23Oc4cc(OC)cc(OC)c4[C@]2(O)[C@H](O)[C@H](C(=O)N(C)C)[C@H]3c2ccccc2)cc1`, the T/C (dose: 1.0 mg/kg/injection, schedule: Q04DX004 (ip), vehicle: Klucel (hydroxypropylcellulose) (HPC)) is reported as 97 % of control, the T/C (dose: 2.0 mg/kg/injection, schedule: Q04DX004 (ip), vehicle: Klucel (hydroxypropylcellulose) (HPC)) is reported as 105 % of control and the T/C (dose: 4.0 mg/kg/injection, schedule: Q04DX004 (ip), vehicle: Klucel (hydroxypropylcellulose) (HPC)) is reported as 109 % of control. For the same compound, the T/C (dose: 8.0 mg/kg/injection, schedule: Q04DX004 (ip), vehicle: Klucel (hydroxypropylcellulose) (HPC)) was 123 % of control.

With `Nc1ncn(C2OC(CO)C(O)C2O)c(=O)n1` (centres undefined) the T/C (dose: 0.38 mg/kg/injection, schedule: Q01DX009 (ip), vehicle: saline) was 100 % of control and 101 % of control, the T/C (dose: 0.75 mg/kg/injection, schedule: Q01DX009 (ip), vehicle: saline) was 109 % of control and 114 % of control and the T/C (dose: 1.5 mg/kg/injection, schedule: Q01DX009 (ip), vehicle: saline) was 112 % of control and 115 % of control. The T/C (dose: 25.0 mg/kg/injection, schedule: Q01DX009 (ip), vehicle: saline) was 150 % of control, the T/C (dose: 50.0 mg/kg/injection, schedule: Q01DX009 (ip), vehicle: saline) was 155 % of control and 159 % of control and the T/C (dose: 100.0 mg/kg/injection, schedule: Q01DX009 (ip), vehicle: saline) was 172 % of control.
